Source: US20160106107A1, “Compositions and Methods for Treating Microorganism” (priority 2006, published 2016)
Where “and” joins values, the source holds several entries; their conditions need not be identical. Identical values can stand only once. Like-named read-outs stand apart in the source and are kept apart here.

Key:
[1] = system: Pseudomonas syringae pv. phaseolicola HB-9 biofilm
[2] = system: Pseudomonas syringae pv. phaseolicola HB-9 planktonic
healthy dry bean seed = assay: Germination of healthy dry bean seed; format: in vivo
[3] = system: naturally occurring microorganisms (bacteria and fungi) on bean seed surface; details: for Bacterial reduction / Fungal reduction / Total microbial reduction: vs untreated seeds, Experiments 1-3
From the text: They included seeds that would normally be discarded during processing in a commercial seed treatment facility—damaged, discoloured, shrivelled or small seeds. Due to the fact they were not cleaned these seeds still contain soil, dirt, plant debris, etc. Therefore, this seed lot was expected to provide a good model for a high natural microbial challenge, with good diversity of organisms and high microbial recovery expected.
These seeds were processed and cleaned in a commercial seed treatment facility. Processing leads to rejection of small, damaged, and/or discoulored seeds, and thus a healthier overall seed lot. After processing, seeds were washed and cleaned, resulting in a significant reduction in soil, dirt or debris.
Experiments were conducted by treating lots of ‘Othello’ and ‘AC Polaris’ seeds with challenges described in Table 10. Seeds were placed individually onto wells of 12-well microtiter plates and treated for 1 h with silver and/or water. After treatment, seeds were rinsed by dipping into fresh phosphate buffer and subsequently transferred to a new 12-well microtiter plate containing fresh phosphate buffer and sonicated for 15-30 min. Sonication allowed for surviving bacterial and fungal to be removed from the seed surface and recovered into the liquid. After 6 days, each of the wells containing seeds were scored based on both: • the turbidity of the liquid in which they were originally immersed for treatment, on day 6. • seed surface area covered by bacterial and/or fungal colonization, also on day 6.
Six seeds were scored in each experiment and each experiment was repeated 3 times independently. Numbers presented on Tables 11, 13, and 15 represent the mean of 6 scores. […] Total microbial scores (bacteria and fungi together) and are represented as percentage of killing on Tables 12, 14, and 16.

[4] = system: dry bean (Phaseolus vulgaris L) seeds, cultivar Othello; assay: Germination of dry bean seeds with aqueous seed coating under high bacterial load; format: in vivo; details: for # seeds germinated / % germination / Day to 25% germination: high bacterial load
Procedure: The efficacy of high valency silver ions produced by oxysilver nitrate was evaluated as a seed treatment on diseased dry bean seeds. The oxysilver nitrate was applied as an aqueous seed coating on the germination of dry bean (Phaseolus vulgaris L).
Seeds were placed on blotters in Petri plates, were soaked in an excess of water for 3 days, then drained on day 4. The 3-day period of excess water created a very high bacterial load′ on the germinating seeds and high disease pressure due to pathogenic, saprophytic and soft-rot bacteria. This disease pressure was so extreme that the germination rates for experiments 2-5 were essentially zero due to being overwhelmed by the microbial growth.

Orford (Soybean) seeds = details: for % of seeds germinated: Day 7 (speed of germination); for % germination: Day 14
From the text: Germination on blotters was scored at 7- and 14-days. Emergence from soil was scored at 21- and 28-days.
To treat seeds, one hundred seeds were placed in a 50-mL Falcon tube and combined with the treatment solution. Seeds were mixed with the treatment for 5-min by gently rolling and inverting the Falcon tube. Coated seeds were placed in an open Petri plate for 30-min to dry. Seeds were sown 10-per pot, set in a greenhouse, and maintained under standard conditions with mercury lamp lighting supplementing daylight from 3:00 pm to 10:00 pm.
Stir constantly. 5% solution—after the 10% solution has equilibrated for 15-min, add 0.5-mL of 10% solution to 0.5-mL of sterile water. Stir constantly. 2.5% solution—add 0.25-mL of 10% solution to 0.75-mL of sterile water. Stir constantly. 1% solution—add 0.1-mL of 10% solution to 0.9-mL of sterile water. Stir constantly. […] Gently roll and invert the tube for 5 min to evenly coat each seed without causing damage. Remove seeds from tube by pouring carefully into an empty Petri plate. Leave exposed (lid off) and air dry seeds for 30 min.
(1) Germination: Place 50 seeds from each treatment onto 25 individual moistened blotters in large Petri plates. Incubate at room temperature for 2-weeks with or without light. Score germination at 7- and 14-days. (2) Emergence: Sow 50 seeds from each treatment into five pots (10-seeds per pot and five pots per treatment). Place in a greenhouse at 22° C. with ample air circulation. Use mercury lamps to supplement lighting (on at 3:00 pm; off at 10:00 pm) if necessary. For pre-emergent plants, water pots as needed to keep soil moist but not wet. Water emergent plants daily. Score emergence at 21 and 28 days.
After seeds were treated and air-dried, they were sown in potted, non-sterile soil in a greenhouse. Alternatively they were placed on moist blotters in large Petri plates.

[5] = system: Erwinia carotovora subsp. carotovora (Ecc) biofilm; assay: Ecc biofilm susceptibility, 24 h contact time; format: cell-based; details: for Ecc biofilm cell counts (unlabelled fourth line = mean of 3) / Log reduction of Ecc biofilms / Ecc biofilm cell counts (single replicates): 24 h contact time
From the text: Carotovora (Ecc), the Soft Rot of Vegetables Pathogen, in Comparison to Nanocrystalline Silver Powder

[6] = system: Pseudomonas syringae pv. phaseolicola on bean seed surface; details: Experiments 1-3; for Total microbial score: day 6, bacteria + fungi
[7] = lowest concentration (5000 ppm)
[8] = AC Polaris Inoculated, vs untreated seeds
[9] = AC Polaris seeds, inoculated w/ bacteria, 0.1%, 1 h, scored day 6 on scale 0-5, mean of 6 seeds
[10] = Othello Inoculated, vs untreated seeds

O=S(=O)([O-])[O-].[Cu+2] [Copper sulfate]
PspHB-9 Biofilm cell counts ([1]; 1250 ppm): 5.15 log10 | PspHB-9 Biofilm cell counts ([1]; 2900 ppm): 0 log10 | PspHB-9 Biofilm cell counts ([1]; 4600 ppm): 0 log10 | reduction of biofilms [1, 7]: 17% | concentration required to be effective ([1]; planktonic cells and biofilms): 11460 ppm | PspHB-9 Planktonic cell counts ([2]; 1250 ppm): 2.95 log10 | PspHB-9 Planktonic cell counts ([2]; 2900 ppm): 0 log10 | PspHB-9 Planktonic cell counts ([2]; 4600 ppm): 0 log10 | reduction of planktonics [2, 7]: ~48%

oxysilver nitrate [High valency silver]
# seeds germinated (healthy dry bean seed; 0.1%): 84 | % germination (healthy dry bean seed; 0.1%): 84% | Day to 50% germination (healthy dry bean seed; 0.1%): 6.5 days | Day to 100% germination (healthy dry bean seed; 0.1%): 9.0 days | # seeds germinated (healthy dry bean seed; 0.5%): 86 | % germination (healthy dry bean seed; 0.5%): 86% | Day to 50% germination (healthy dry bean seed; 0.5%): 6.0 days | Day to 100% germination (healthy dry bean seed; 0.5%): 9.0 days | # seeds germinated (healthy dry bean seed; 1%): 89 | % germination (healthy dry bean seed; 1%): 89% | Day to 100% germination (healthy dry bean seed; 1%): 9.0 days | # seeds germinated (healthy dry bean seed; […]): 81 | % germination (healthy dry bean seed; […]): 81% | Day to 100% germination (healthy dry bean seed; […]): 9.0 days | germination compared with water control or Apron Maxx RTA (healthy dry bean seed; healthy dry bean seed): more rapid germination and higher percent germination rate | PspHB-9 Biofilm cell counts ([1]; 100 ppm): 0 log10 | PspHB-9 Biofilm cell counts ([1]; 500 ppm): 0 log10 | PspHB-9 Biofilm cell counts ([1]; 1000 ppm): 0 log10 | eradication of biofilm ([1]; at the lowest concentration): 100% | Bacterial reduction ([3]; AC Polaris Non-inoculated): 67% and 90% and 100% | Fungal reduction ([3]; AC Polaris Non-inoculated): 100% and 62% | Total microbial reduction ([3]; AC Polaris Non-inoculated): 81% and 78% and 100% | Bacterial reduction ([3]; Othello Non-inoculated): 80% and 62% and 88% | Fungal reduction ([3]; Othello Non-inoculated): 70% and 100% and 74% | Total microbial reduction ([3]; Othello Non-inoculated): 75% and 86% and 81% | bactericidal and fungicidal efficacy ([3]; various bacterial and fungal species associated with seed surfaces, 3 independent replications): good bactericidal and fungicidal efficacy | # seeds germinated ([4]; 0.1%): 53 | % germination ([4]; 0.1%): 35.3% | Day to 25% germination ([4]; 0.1%): 5 days | # seeds germinated ([4]; 0.5%): 53 | % germination ([4]; 0.5%): 35.3% | Day to 25% germination ([4]; 0.5%): 5 days | germination higher than Apron Maxx RTA ([4]; 1%, by day 10): 54% | increase of germination compared with the negative control (sterile water) ([4]; 1%, by day 10): 34.7% | # seeds germinated ([4]; 1%): 91 | % germination ([4]; 1%): 60.7% | Day to 25% germination ([4]; 1%): 5 days | # seeds germinated ([4]; […]): 51 | % germination ([4]; […]): 43.0% | Day to 25% germination ([4]; […]): 5 days | % of seeds germinated (Orford (Soybean) seeds; 0.1%): 28% | % germination (Orford (Soybean) seeds; 0.1%): 50% | % of seeds germinated (Orford (Soybean) seeds; 0.5%): 34.5% | % germination (Orford (Soybean) seeds; 0.5%): 58% | % of seeds germinated (Orford (Soybean) seeds; 1%): 59.4% | % germination (Orford (Soybean) seeds; 1%): 64% | germination rate higher than water (Orford (Soybean) seeds; 1%, after 14 days): 34% | % of seeds germinated (Orford (Soybean) seeds; […]): 29.6% | % germination (Orford (Soybean) seeds; […]): 54% | bacterial growth on treated seeds (Orford (Soybean) seeds; soybean seeds and blotters): did not appear to have major bacterial growth | PspHB-9 Planktonic cell counts ([2]; 100 ppm): 0 log10 | PspHB-9 Planktonic cell counts ([2]; 500 ppm): 0 log10 | PspHB-9 Planktonic cell counts ([2]; 1000 ppm): 0 log10 | eradication of planktonic ([2]; at the lowest concentration): 100% | Ecc biofilm cell counts (unlabelled fourth line = mean of 3) ([5]; 50 ppm): 1.53 log10 | Log reduction of Ecc biofilms ([5]; 50 ppm): 2.23 | Ecc biofilm cell counts (single replicates) ([5]; 50 ppm, listed as Oxy): 1.60 log10 and 1.00 log10 and 2.00 log10 | Ecc biofilm cell counts (unlabelled fourth line = mean of 3) ([5]; 100 ppm): 0.65 log10 | Log reduction of Ecc biofilms ([5]; 100 ppm): 3.11 | Ecc biofilm cell counts (single replicates) ([5]; 100 ppm, listed as Oxy): 0 log10 (2×) and 1.95 log10 | Ecc biofilm cell counts (unlabelled fourth line = mean of 3) ([5]; 200 ppm): 0.70 log10 | Log reduction of Ecc biofilms ([5]; 200 ppm): 3.06 | Ecc biofilm cell counts (single replicates) ([5]; 200 ppm, listed as Oxy): 0 log10 (2×) and 2.11 log10 | Ecc biofilm cell counts (single replicates) ([5]; 500 ppm): 0 log10 | Ecc biofilm cell counts (unlabelled fourth line = mean of 3) ([5]; 500 ppm): 0.00 log10 | Log reduction of Ecc biofilms ([5]; 500 ppm): 3.76 | anti-microbial efficacy compared with nanocrystalline silver ([5]; plant pathogenic Erwinia spp.): as efficacious as nanocrystalline silver | Bacterial reduction [6, 8]: 100% and 96% | Total microbial reduction [6, 8]: 100% and 96% | Total microbial score ([6]; AC Polaris seeds, inoculated w/ bacteria, 0.1%, 1 h): 0 | Total microbial score ([6]; AC Polaris seeds, inoculated w/ bacteria, 0.1%, 1 h, listed as High valency silver nitrate 1): 0.16 | Bacteria score [6, 9]: 0 | Fungi score [6, 9]: 0 | Bacteria score ([6]; AC Polaris seeds, inoculated w/ bacteria, 0.1%, 1 h, scored day 6 on scale 0-5, mean of 6 seeds, listed as High valency silver nitrate 1): 0.16 | Bacterial reduction [6, 10]: 41% and 78% and 60% | Fungal reduction [6, 10]: 78% and 75% and 100% | Total microbial reduction [6, 10]: 65% and 77% and 79% | Total microbial score ([6]; Othello seeds, inoculated w/ bacteria, 0.1%, 1 h): 1.83 and 1.32 and 1.66
